Molecules are shown by their SMILES. Counter-ions that a name gives are not always drawn.

Consider 6 compounds from patent US4886812A, “Tetrahydro-benzthiazoles, the preparation thereof and their use as intermediate products or as pharmaceuticals” (Dr. Karl Thomae GmbH, priority 1984, dated 1989).

Data set [1] concerns dopamine turnover. Description: Inhibition of dopamine turnover (AMPT-induced dopamine reduction in brain). It counts as in vivo, mice. How it is done:
The inhibition of dopamine turnover was measured in mice. In animals treated with α-methylparatyrosine (AMPT) (250 mg/kg by intraperitoneal route) 15 minutes into the experiment, the dopamine concentration throughout the brain decreases as the test progresses. By administering substances which act on autoreceptors, the dopamine reduction (compared with control animals treated with common salt solution) can be prevented. Test substances are administered at time O of the experiment in a dosage of 5 mg/kg s.c., unless otherwise stated. Four hours and 15 minutes into the experiment the animals are killed and the brains are subjected to dopamine determination using high pressure liquid chromatography with electrochemical detection. This determines the percentage inhibition, caused by the test substance, of the dopamine reduction induced by AMPT.

Data set [2] deals with presynaptic dopamine receptors. The data set is described as follows: Inhibition of the exploratory activity of mice (infra-red light barrier cages). In kind it is in vivo. How it is done:
The activity was measured in observation cages fitted with an infra-red light barrier. […] Groups of 5 animals are given the test substance, unless otherwise specified, in a dosage of 10 mg/kg by subcutaneous injection. […] In parallel or alternately with groups treated with test substance, control groups treated with common salt are investigated (0.9% solution; 0.1 ml/10 g of body weight by subcutaneous route).

The subject of data set [3] is dopamine synthesis. The data set is described as follows: Inhibition of dopamine synthesis (γ-butyrolactone-stimulated DOPA accumulation in corpus striatum). It counts as in vivo. How it is done: For this purpose, 5 animals are given the test substance in a dosage of 10 mg/kg s.c., unless otherwise stated. […] In order to inhibit the decarboxylation of DOPA, 200 mg/kg of 3-hydroxybenzyl-hydrazinhydrochloride are administered by intraperitoneal route after a further 5 minutes. Forty minutes after administration of the substance the animals are killed and the corpus striatum is prepared. The DOPA content is measured by HPLC with electrochemical detection (standard: dihydroxybenzylamine).
The percentage inhibition, produced by the test substance, of the DOPA accumulation stimulated by γ- butyrolactone compared with the controlled animals treated with 0.9% common salt solution is determined.

The subject of data set [4] is Rhesus monkeys (MPTP model for Parkinson's disease). The text has this:
The discovery of the neurotoxin 1-methyl-4-phenyl-1,2,3,6-tetrahydropyridine (MPTP) (Langston et al., Science 219, 979 (1983)) provided an animal model for Parkinson's disease.
The irreversible neurological syndrome triggered by MPTP in man and in monkeys largely resembles the idiopathic Parkinson's disease in its clinical, pathological, biochemical and pharmacological characteristics (Markey et al., Nature 311, 464 (1984)). The reason for this convincing similarity is the fact that MPTP selectively destroys the small group of dopaminergic nerve cells in the substantia nigra of the brain which are also destroyed by degenerative processes in naturally occurring Parkinson's disease.

[5] abbreviates: 10 mg/kg s.c., measurement of exploration 75 minutes after administration.
Setting [6] is: 5 mg/kg s.c., AMPT 250 mg/kg i.p., brain dopamine at 4 hours 15 minutes.

Consider `CN(C)C1CCc2nc(N)sc2C1.Cl.Cl` (stereo not shown) [Substance A, 2-amino-6-dimethylamino-4,5,6,7-tetrahydrobenzthiazol-dihydrochloride], for which the ED50 in data set [1] (Mus musculus, sc, 50 % inhibition, curve in the range 0.5-3 mg/kg s.c., read-out: Dosage giving 50 % inhibition of AMPT effect (read off from the dosage/activity curve)) came to 0.95 mg/kg; in data set [3] (sc, 50 percent inhibition, curve in the range 0.1-1.0 mg/kg s.c., read-out: Dosage giving 50 percent inhibition of DOPA accumulation (read off from the dosage/activity curve)) it was 0.55 mg/kg. For the same compound, in data set [1] (at 0.95 mg/kg s.c., read off from the dosage/activity curve (0.5-3 mg/kg s.c.)), the “% inhibition of AMPT effect” value was found to be 50%. In data set [2] (50 percent inhibition, curve in the range 1-10 mg/kg s.c.), the “Dosage giving 50 percent inhibition of activity (read off from the dosage/activity curve)” value is reported as 2.7 mg/kg s.c. Further, the “Inhibition of activity in percent compared with controls treated with common salt” value (from here on “Inhibition of activity in percent”) in data set [2] (at 2.7 mg/kg s.c., read off from the dosage/activity curve (1-10 mg/kg s.c.)) turned out to be 50%. For the same compound, the “Inhibition of DOPA accumulation in percent compared with controls treated with common salt” value in data set [3] (at 0.55 mg/kg s.c., read off from the dosage/activity curve (0.1-1.0 mg/kg s.c.)) was 50%.
In the case of `CCCNC1CCc2nc(N)sc2C1.Cl.Cl` (stereo not shown) [Substance C, 2-amino-6-n-propylamino-4,5,6,7-tetrahydrobenzthiazol-dihydrochloride], in data set [4] (10-100 μg/kg intramuscular), the Residual symptoms result was “an occasional transient and slight resting tremor and a reduction in rough strength”; the Sedation entry was “no sedation”. The “Circulation in the skin” value in data set [4] (10-100 μg/kg intramuscular, compared with before administration) is given as “appeared to be greater than before”. The “Effect of a fresh administration” value in data set [4] (after reversion to Parkinson symptoms) is “again leads to an improvement or substantial removal of the clinically pathological manifestations”. For the same compound, the “Inhibition of activity in percent” value in data set [2] (setting [5]) is 20%. Besides, in data set [3] (10 mg/kg s.c., γ-butyrolactone 750 mg/kg i.p., 40 minutes after administration), the “Inhibition of DOPA accumulation in percent compared with controls treated with common salt” value is on record as 60%.
On to `Cl.Cl.Nc1nc2c(s1)CC(N1CCCC1)CC2` (stereo not shown) [Substance B, 2-amino-6-pyrrolidino-4,5,6,7-tetrahydrobenzthiazol-dihydrochloride], for which the “% inhibition of AMPT effect” value in data set [1] (setting [6]) turned out to be 67%. Further, the “Inhibition of activity in percent” value in data set [2] (10 mg/kg s.c., measured one hour after administration) worked out at 94%.
Regarding `C=CCNc1nc2c(s1)CC(N(C)C)CC2.Cl.Cl` (stereo not shown) [Substance D, 2-allylamino-6-dimethylamino-4,5,6,7-tetrahydro-benzthiazol-dihydrochloride], the “% inhibition of AMPT effect” value in data set [1] (setting [6]) was 52%. Besides, the “Inhibition of activity in percent” value in data set [2] (setting [5]) was 76%.
Regarding `C=CCN(CC=C)C1CCc2nc(N)sc2C1.Cl.Cl` (stereo not shown) [Substance F, 2-amino-6-diallylamino-4,5,6,7-tetrahydrobenzthiazol-dihydrochloride], the “Inhibition of activity in percent” value in data set [2] (setting [5]) is given as 60%.
Consider `C=CCN(Cc1ccc(Cl)cc1)C1CCc2nc(N)sc2C1` (stereo not shown) [Substance E, 6-[N-ally-N-(4-chloro-benzyl)-amino]-2-amino-4,5,6,7-tetrahydro-benzthiazol-dihydrochloride], for which the “% inhibition of AMPT effect” value in data set [1] (setting [6]) was determined as 32%. Also, the “Inhibition of activity in percent” value in data set [2] (setting [5]) is given as 56%.
